Test results reported in PubChem BioAssay AID2060484 (Molecular Pharmacology Branch, DTP, NCI, 2025).

Tested on: SUM149PT spheroids with HUVEC/MSC, viability
Assay: Anticancer human tumor SUM149PT cell line growth inhibition [GQUAD];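 also: spheroids exposed to drugs for seven days before readout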;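 as to viability, T/C: percent viability relative to DMSO vehicle control taken as 100%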
Conditions: for IC50: curve of first compound; for viability, T/C: stronger effect = lower value
Excerpt: DNA G-quadruplex Stabilizer Agents in Combinations in Complex Spheroids
A high-throughput screen of multi-cell type tumor spheroids was designed to identify active combinations of DNA G-quadruplex stabilizer agents and targeted small molecules. Complex spheroids include a stromal component modeled by human endothelial cells (HUVEC) and fibroblasts modeled by human mesenchymal stem cells (MSCs). The concentration ranges selected for each drug and investigational agent were based upon clinically achievable concentrations if the clinical Cmax of the agent was known.
Compounds. The drugs and investigational agents: pidnarulex (CX-5461; NSC782164), APTO-253 (NSC789042), BRACO-19 (NSC847499), peposertib (NSC802822), ceralasertib (NSC780249), elimusertib (NSC800525), camonsertib (NSC841442), AZD-1390 (NSC803789), olaparib (NSC753686), talazoparib (NSC767125), ART-558 (NSC835418), sotorasib (NSC818433), MRTX-1133 (NSC836407), SN-38 (NSC673596), topotecan (NSC609699), etoposide (NSC141540), doxorubicin (NSC123127), gemcitabine (NSC613327), 5-fluorouracil (NSC19893), paclitaxel (NSC125973), vemurafenib (NSC761431), panobinostat (NSC761190), R-306465 (JNJ-16241199; NSC773264), adavosertib (NSC754352), TP-3654 (NSC805149), carboplatin (NSC241240), KSQ-4279 (NSC840948), and staurosporine (NSC755774) were obtained from the National Cancer Institute (NCI) Developmental Therapeutics Program Chemical Repository (34). The FDA-approved anticancer drug set is available from the NCI Developmental Therapeutics Program. […] The stock solutions were prepared in dimethyl sulfoxide (DMSO, Sigma-Aldrich, St. Louis, MO, cat. D2650) at 800-fold the tested concentration and stored at -70 degrees C prior to their use. All drugs and investigational agents were tested over a range starting from a high concentration at or near the clinical Cmax and decreasing in half-log increments. If the clinical Cmax for an agent had not been determined, the highest concentration tested was 10 microM.
2.3 Cell Culture. All cells were maintained in an incubator at 37 degrees C and 5% CO2 with 95% humidity. The PDC lines were cultured according to standard operating procedures established by the NCI PDMR. All PDCs were thawed and cultured in Matrigel-coated flasks prepared with a working solution of 1X Ham's F-12 nutrient mix, without supplementation (Invitrogen, cat. 11765054), 100 U/mL penicillin-streptomycin (Invitrogen, cat. 15140122), and 2.5% Matrigel (Corning Inc., cat. 354248) for the first three passages. The 857933-349-R-J2-PDC line was cultured in 6C/Colon 1B media, which includes advanced DMEM/F-12 (Thermo Fisher Scientific, cat. 12634028), 10 mM HEPES (Thermo Fisher Scientific, cat. 15630080), 1X GlutaMAX supplement (Thermo Fisher Scientific, cat. 35050061), 0.1 mg/mL primocin (InvivoGen, cat. ant-pm-2), 10% defined fetal bovine serum, heat inactivated (HyClone Laboratories Inc., cat. SH30070.03HI), 50% L-WRN conditioned media (ATCC, cat. CRL-3276), 1.25 mM N-Acetyl-L-cysteine (Sigma-Aldrich, cat. A9165), 10 mM nicotinamide (Sigma-Aldrich, cat. N0636), 1X B-27 supplement (Thermo Fisher Scientific, cat. 17504044), 1X N-2 supplement (Thermo Fisher Scientific, cat. 17502048), 10 microM Y-27632 dihydrochloride (Tocris Bioscience, cat. 1254), and 50 ng/mL human EGF recombinant protein (Thermo Fisher Scientific, cat. PHG0311). The 485176-168-R4-J1-PDC line was cultured in Panc media, which includes all 6C/Colon 1B media components plus 100 ng/mL human FGF-10 (Thermo Fisher Scientific, cat. 100-26), 500 nM SB-431542 (Selleckchem, cat. S1067), and gastrin (Tocris, cat. 3006).
[…]

With `C=CC(=O)N1CCN(c2nc(=O)n(-c3c(C)ccnc3C(C)C)c3nc(-c4c(O)cccc4F)c(F)cc23)C(C)C1` (configuration not stated) + Cc1[nH]c2ccc(F)cc2c1-c1nc2c3cccnc3c3ncccc3c2[nH]1 the IC50 (second compound 0.0316 µM) was over 10 µM, the IC50 (second compound 0.1 µM) was over 10 µM and the IC50 (second compound 0.316 µM) was over 10 µM. The IC50 (second compound 1 µM) was over 10 µM, the IC50 (second compound 3.16 µM) was over 10 µM and the IC50 (second compound 10 µM) was over 10 µM. For the same molecule, the viability, T/C (second compound 0.0316 µM, first compound 0.0316 µM) was 106%, the viability, T/C (second compound 0.0316 µM, first compound 0.1 µM) was 91.6% and the viability, T/C (second compound 0.0316 µM, first compound 0.316 µM) was 99.1%. For the same molecule, the viability, T/C (second compound 0.0316 µM, first compound 1 µM) was 108%, the viability, T/C (second compound 0.0316 µM, first compound 3.16 µM) was 125% and the viability, T/C (second compound 0.0316 µM, first compound 10 µM) was 117%. For the same molecule, the viability, T/C (second compound 0.1 µM, first compound 0.0316 µM) was 116%, the viability, T/C (second compound 0.1 µM, first compound 0.1 µM) was 93.8% and the viability, T/C (second compound 0.1 µM, first compound 0.316 µM) was 111%. The viability, T/C (second compound 0.1 µM, first compound 1 µM) was 116%, the viability, T/C (second compound 0.1 µM, first compound 3.16 µM) was 124% and the viability, T/C (second compound 0.1 µM, first compound 10 µM) was 114%. It also gave a viability, T/C (second compound 0.316 µM, first compound 0.0316 µM) of 94.3%, a viability, T/C (second compound 0.316 µM, first compound 0.1 µM) of 107% and a viability, T/C (second compound 0.316 µM, first compound 0.316 µM) of 95.6%. The viability, T/C (second compound 0.316 µM, first compound 1 µM) was 112%, the viability, T/C (second compound 0.316 µM, first compound 3.16 µM) was 122% and the viability, T/C (second compound 0.316 µM, first compound 10 µM) was 108%. The viability, T/C (second compound 1 µM, first compound 0.0316 µM) was 97.9%, the viability, T/C (second compound 1 µM, first compound 0.1 µM) was 97.6% and the viability, T/C (second compound 1 µM, first compound 0.316 µM) was 112%. For the same molecule, the viability, T/C (second compound 1 µM, first compound 1 µM) was 118%, the viability, T/C (second compound 1 µM, first compound 3.16 µM) was 120% and the viability, T/C (second compound 1 µM, first compound 10 µM) was 114%. The viability, T/C (second compound 3.16 µM, first compound 0.0316 µM) was 99.7%, the viability, T/C (second compound 3.16 µM, first compound 0.1 µM) was 86% and the viability, T/C (second compound 3.16 µM, first compound 0.316 µM) was 102%. For the same molecule, the viability, T/C (second compound 3.16 µM, first compound 1 µM) was 109%, the viability, T/C (second compound 3.16 µM, first compound 3.16 µM) was 115% and the viability, T/C (second compound 3.16 µM, first compound 10 µM) was 114%. For the same molecule, the viability, T/C (second compound 10 µM, first compound 0.0316 µM) was 92%, the viability, T/C (second compound 10 µM, first compound 0.1 µM) was 80.6% and the viability, T/C (second compound 10 µM, first compound 0.316 µM) was 100%. It also gave a viability, T/C (second compound 10 µM, first compound 1 µM) of 106%, a viability, T/C (second compound 10 µM, first compound 3.16 µM) of 111% and a viability, T/C (second compound 10 µM, first compound 10 µM) of 114%.
